# Experimental data published in PMC8113459, “Selective inhibition of cullin 3 neddylation through covalent targeting DCN1 protects mice from acetaminophen-induced liver toxicity” (Nature Communications, 2021).
# Values joined by “and” are separate entries in the source; they are usually repeats but may differ in a detail not shown here. Equal values may be shown once.
# What was measured:
# Type in all cases: cell-based, human
# HCT116 cells = experiment: Cell viability assay (WST-8), HCT116; conditions: for cell viability relative to control: replicates
# Procedure: (§1) Cell viability assay was performed as previously described. The effect of DCN1 inhibitors on cell growth was evaluated by a WST-8 [2-(2-methoxy-4-nitrophenyl)-3-(4-nitrophenyl)-5-(2,4-disulfophenyl)-2H-tetrazolium, monosodium salt assay (Dojindo Molecular Technologies, Inc). Cells (2000–3000 cells in each well) were seeded in 96-well tissue culture plates in medium (100 μL) and treated with serial dilution of DCN1 inhibitors for 3 days. At the end of incubation, WST-8 dye (20 μL) was added to each well and incubated for 1–3 h, then the absorbance was measured in a microplate reader (Molecular Devices) at 450 nm. Cell growth inhibition was evaluated as the ratio of the absorbance of the sample to that of the control. The values were inserted into Prism software, and the curves and the EC50 values were produced by Prism software.
# [1] = Cell viability assay (WST-8), HCT116; conditions: human, HCT116 cells, replicates, read-out: cell viability relative to control
# Procedure: as §1
# neddylation of cullin 3 = experiment: Western blot, cullin 3 neddylation in U2OS cells; conditions: U2OS, Fig. 6c
# Procedure: (§2) Western blotting was performed as described previously. Treated cells were lysed by RIPA buffer supplemented with protease inhibitor. The expression level of indicated proteins was examined by immunoblotting analysis and GAPDH was used as the loading control. Antibodies were purchased commercially: cullin 1 (sc-17775, 1:500 dilution) and cullin 2 (sc-166506, 1:500 dilution) from Santa Cruz Biotech (Santa Cruz, CA); cullin 4A (PA5-14542, 1:1000 dilution), cullin 4B (PA5-50647, 1:1000 dilution), and DCN3 (DCUN1D3, PA5-44000, 1:1000 dilution) from Thermo Fisher Scientific (Wayne, MI); cullin 3 (2759, 1:1000), NRF2 (12721, 1:1000 dilution), HO-1 (70081, 1:1000 dilution), and Bim (2819, 1:1000 dilution) from Cell Signaling Technology (Boston, MA); DCN1 (GWB-E3D700, 1:1000 dilution) from GenWay Biotech (San Diego, CA); and cullin 5 (A302-173A, 1:500 dilution) from Bethyl Labs (Montgomery, TX). Results are representative of two independent experiments.
# [2] = Cell viability assay (WST-8), MDA-MB-231; conditions: human, MDA-MB-231 cells, replicates, read-out: cell viability relative to control
# Procedure: as §1
# MDA-MB-231 cells = experiment: Cell viability assay (WST-8), MDA-MB-231; conditions: for cell viability relative to control: replicates
# Procedure: as §1
# four cancer cell lines = experiment: Cell viability assay (WST-8), four cancer cell lines; conditions: concentrations up to 1000 nM, 72 h
# Procedure: as §1
# [3] = tested on: neddylation of cullin 1, 2, 4A, 4B, and 5; experiment: Western blot, neddylation of other cullin members
# Procedure: as §2
# KYSE70 cells = experiment: Cell viability assay (WST-8), KYSE70; conditions: for cell viability relative to control: replicates
# Procedure: as §1
# [4] = Cell viability assay (WST-8), KYSE70; conditions: human, KYSE70 cells, replicates, read-out: cell viability relative to control
# Procedure: as §1
# U2OS cells = experiment: Cell viability assay (WST-8), U2OS; conditions: for cell viability relative to control: replicates
# Procedure: as §1
# [5] = Cell viability assay (WST-8), U2OS; conditions: human, U2OS cells, replicates, read-out: cell viability relative to control
# Procedure: as §1
compound,measurement,setting,value
NS(=O)(=O)OC[C@@H]1C[C@@H](n2ccc3c(N[C@H]4CCc5ccccc54)ncnc32)C[C@@H]1O [MLN4924],EC50,"HCT116 cells; Homo sapiens, HCT-116, 72 h, cell line assigned from panel order, read-out: EC50, cell growth inhibition",294 nM
same,cell viability relative to control,"HCT116 cells; conc 3, 72 h",93.0769 and 97.803
same,cell viability relative to control,"HCT116 cells; conc 10, 72 h",99.5045 and 108.03
same,cell viability relative to control,"HCT116 cells; conc 30, 72 h",98.1868 and 105.151
same,cell viability relative to control,"HCT116 cells; conc 100, 72 h",42.5676 and 63.1319 and 54.6212
same,cell viability relative to control,"HCT116 cells; conc 300, 72 h",39.0549 and 40.989
same,cell viability relative to control,"HCT116 cells; conc 1000, 72 h",32.8022 and 29.945
same,viability at 72 h,"[1]; conc 3, 72 h",103%
same,viability at 72 h,"[1]; conc 10, 72 h",118%
same,viability at 72 h,"[1]; conc 30, 72 h",106%
same,viability at 72 h,"[1]; conc 300, 72 h",26.5%
same,viability at 72 h,"[1]; conc 1000, 72 h",27.6%
same,time within which the neddylation of cullin 3 is effectively inhibited,neddylation of cullin 3,≤ 30 min
same,viability at 72 h,"[2]; conc 3, 72 h",106%
same,viability at 72 h,"[2]; conc 10, 72 h",98.2%
same,viability at 72 h,"[2]; conc 30, 72 h",78.8%
same,viability at 72 h,"[2]; conc 100, 72 h",43.4%
same,viability at 72 h,"[2]; conc 300, 72 h",25.5%
same,viability at 72 h,"[2]; conc 1000, 72 h",13.7%
same,EC50,"MDA-MB-231 cells; Homo sapiens, MDA-MB-231, 72 h, cell line assigned from panel order, read-out: EC50, cell growth inhibition",154 nM
same,cell viability relative to control,"MDA-MB-231 cells; conc 3, 72 h",94.1379 and 99.1954
same,cell viability relative to control,"MDA-MB-231 cells; conc 10, 72 h",109.785 and 104.516
same,cell viability relative to control,"MDA-MB-231 cells; conc 30, 72 h",84.086 and 84.3011
same,cell viability relative to control,"MDA-MB-231 cells; conc 100, 72 h",59.6774 and 48.8172
same,cell viability relative to control,"MDA-MB-231 cells; conc 300, 72 h",28.4946 and 44.3011
same,cell viability relative to control,"MDA-MB-231 cells; conc 1000, 72 h",18.2796 and 26.5591
same,cytotoxicity / cell viability,four cancer cell lines,potently inhibits cell viability
same,inhibition of neddylation of cullin members,"[3]; THLE2, Fig. 6b",potently inhibits neddylation of all cullins
same,time within which the neddylation of cullin 1 is effectively inhibited,"[3]; U2OS, Fig. 6c",≤ 30 min
same,EC50,"KYSE70 cells; Homo sapiens, KYSE-70, 72 h, cell line assigned from panel order, read-out: EC50, cell growth inhibition",266 nM
same,cell viability relative to control,"KYSE70 cells; conc 3, 72 h",119.091 and 98.7603 and 92.6446
same,cell viability relative to control,"KYSE70 cells; conc 10, 72 h",116.984 and 100.041
same,cell viability relative to control,"KYSE70 cells; conc 30, 72 h",82.3967
same,cell viability relative to control,"KYSE70 cells; conc 100, 72 h",57.9752
same,cell viability relative to control,"KYSE70 cells; conc 300, 72 h",39.3388
same,cell viability relative to control,"KYSE70 cells; conc 1000, 72 h",29.2149
same,viability at 72 h,"[4]; conc 10, 72 h",110%
same,viability at 72 h,"[4]; conc 30, 72 h",76.4%
same,viability at 72 h,"[4]; conc 100, 72 h",59.5%
same,viability at 72 h,"[4]; conc 300, 72 h",41.9%
same,viability at 72 h,"[4]; conc 1000, 72 h",31%
same,EC50,"U2OS cells; Homo sapiens, U2OS, 72 h, cell line assigned from panel order, read-out: EC50, cell growth inhibition",209 nM
same,cell viability relative to control,"U2OS cells; conc 3, 72 h",108.902 and 87.9268 and 99.0244
same,cell viability relative to control,"U2OS cells; conc 10, 72 h",107.561 and 98.1707
same,cell viability relative to control,"U2OS cells; conc 30, 72 h",105.122 and 104.756
same,cell viability relative to control,"U2OS cells; conc 100, 72 h",49.6951 and 43.1707
same,cell viability relative to control,"U2OS cells; conc 300, 72 h",47.5122 and 35 and 24.2561
same,cell viability relative to control,"U2OS cells; conc 1000, 72 h",34.8293 and 26.6585
same,viability at 72 h,"[5]; conc 10, 72 h",108%
same,viability at 72 h,"[5]; conc 30, 72 h",97.3%
same,viability at 72 h,"[5]; conc 100, 72 h",50.8%
same,viability at 72 h,"[5]; conc 1000, 72 h",21%
